Test results as given in patent US20240245709A1, “[…] USE IN TREATMENT OF E[…] EPILEPTICUS” (MARINUS PHARMACEUTICALS, INC., priority 2021, published 2024).

How the values were obtained:
[1] = Clinical safety in the ganaxolone development program (placebo-controlled Phase 1, 2 and 3 studies); format: in vivo, human
Excerpt: In the completed placebo-controlled Phase 1, 2, and 3 studies, 0.32% of subjects who received ganaxolone and 0.46% of subjects who received placebo developed elevated LFTs during the study (>3×ULN AST and/or ALT). A subject participating in the ganaxolone paediatric epilepsy study developed liver failure, which was not considered to be related to ganaxolone. The subject was diagnosed with short bowel syndrome, liver steatosis and IgG-cholangitis, which were considered to be the causal factors for the subject's liver failure. There have been no other cases of Hy's Law or liver failure in the ganaxolone development program. […] After cessation of the dosing, plasma ganaxolone levels are expected to drop rapidly, but it is possible that low sub-therapeutic levels persist for several days as ganaxolone is slowly released from tissues.
(§1) Ganaxolone has been administered to infants with severe forms of epilepsy as early as 4 months of age. In clinical trials involving administration of ganaxolone over several weeks, the study drug has been tapered off over a 1 to 2-week period.

[2] = Solubility of ganaxolone in solvents; format: physicochemical
Procedure: (§2) Ganaxolone is insoluble in water. […] 3.5 mg/mL, and 3.1 mg/mL, respectively. Ganaxolone has a relatively long half-life—approximately 20 hours in human plasma following oral administration (Nohria, V. and Giller, E., Neurotherapeutics, (2007) 4(1): 102-105). Furthermore, ganaxolone has a short Tmax, which means that therapeutic blood levels are reached quickly.
Ganaxolone formulations suitable for parenteral administration in the methods of the present invention may comprise physiologically acceptable sterile aqueous or non-aqueous solutions, dispersions, suspensions or emulsions, and sterile powders for reconstitution into sterile injectable solutions or dispersions. Examples of suitable aqueous and non-aqueous carriers, diluents, solvents, or vehicles including water, ethanol, polyols (propylene glycol, polyethylene-glycol, glycerol, cremophor and the like), suitable mixtures thereof, vegetable oils (such as olive oil) and injectable organic esters such as ethyl oleate. Additionally, ganaxolone can be dissolved at concentrations of >1 mg/ml using water soluble beta cyclodextrins (e.g. beta-sulfobutyl-cyclodextrin and 2-hydroxypropylbetacyclodextrin). A particularly suitable cyclodextrin is a substituted-β-cyclodextrin is Captisol®. […]

[3] = molecular target: T1, progesterone receptor (Homo sapiens, UniProt P06401); test: Progesterone receptor activation; settings: directly or indirectly, via metabolic conversion
T1 sequence (P06401 1-933): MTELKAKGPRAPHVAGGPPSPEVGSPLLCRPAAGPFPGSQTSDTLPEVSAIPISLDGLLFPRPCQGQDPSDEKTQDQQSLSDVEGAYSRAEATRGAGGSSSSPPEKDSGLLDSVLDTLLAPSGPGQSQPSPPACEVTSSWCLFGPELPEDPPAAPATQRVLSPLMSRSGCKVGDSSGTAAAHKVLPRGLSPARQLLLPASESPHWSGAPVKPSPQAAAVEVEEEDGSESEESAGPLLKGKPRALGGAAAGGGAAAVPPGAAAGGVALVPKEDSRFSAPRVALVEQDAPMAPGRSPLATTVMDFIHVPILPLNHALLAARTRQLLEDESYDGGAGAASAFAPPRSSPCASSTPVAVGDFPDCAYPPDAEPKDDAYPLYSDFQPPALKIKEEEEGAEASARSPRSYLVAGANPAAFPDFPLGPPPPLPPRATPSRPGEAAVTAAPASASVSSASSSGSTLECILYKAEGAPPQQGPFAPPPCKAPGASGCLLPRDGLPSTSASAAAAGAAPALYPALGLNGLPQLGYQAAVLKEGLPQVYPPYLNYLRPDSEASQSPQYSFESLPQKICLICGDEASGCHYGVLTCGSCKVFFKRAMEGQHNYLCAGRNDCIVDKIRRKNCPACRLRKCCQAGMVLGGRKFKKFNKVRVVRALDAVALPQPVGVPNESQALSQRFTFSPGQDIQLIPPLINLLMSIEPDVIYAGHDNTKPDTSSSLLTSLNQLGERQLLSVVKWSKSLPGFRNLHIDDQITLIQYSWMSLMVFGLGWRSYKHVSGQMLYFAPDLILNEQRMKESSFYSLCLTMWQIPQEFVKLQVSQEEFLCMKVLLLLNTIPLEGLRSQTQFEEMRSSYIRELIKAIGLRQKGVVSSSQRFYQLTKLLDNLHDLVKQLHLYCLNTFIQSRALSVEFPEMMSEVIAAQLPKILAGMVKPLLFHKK
Excerpt: Ganaxolone (3α-hydroxy-3β-methyl-5α-pregnan-20-one) is a 3β-methylated synthetic analogue of the endogenous neurosteroid allopregnanolone with similar biological activity (Carter et al., (1997), The Journal of Pharmacology and Experimental Therapeutics, 280:1284-1295), but it is designed to not activate nuclear (classical) progesterone receptors.

[4] = Toxicology studies in animals focusing on prenatal and neonatal development; format: in vivo
Excerpt: as §1

[5] = human plasma, oral administration; cited from earlier work
[6] = system: CYP3A4/5; test: Metabolism and effect of strong CYP inducers on ganaxolone clearance (in vitro data and human PK data)
[7] = Human plasma pharmacokinetics following oral administration; format: in vivo
Procedure: as §2

CC(=O)[C@H]1CC[C@H]2[C@@H]3CC[C@H]4C[C@](C)(O)CC[C@]4(C)[C@H]3CC[C@]12C [ganaxolone, 3α-hydroxy-3β-methyl-5α-pregnan-20-one]
withdrawal symptoms after cessation ([1]; clinical trials, several weeks of administration, tapered off over 1 to 2 weeks): no reports of withdrawal symptoms | subjects who developed elevated LFTs (>3×ULN AST and/or ALT) ([1]; completed placebo-controlled Phase 1, 2 and 3 studies): 0.32% | trends in ECG intervals, vital signs, physical or neurological examinations ([1]; development program overall): no clinically significant trends | excretion to breast milk ([1]; ganaxolone and its metabolites): excreted to breast milk | plasma concentration that can induce anesthesia ([1]; subject, intravenous administration): above 1000 ng/ml | solubility ([2]; aqueous with cosolvent or surfactant or cyclodextrin, beta-sulfobutyl-cyclodextrin and 2-hydroxypropylbetacyclodextrin, read-out: concentration dissolved using water soluble beta cyclodextrins): > 1000 µg/mL | solubility in water ([2]; water): insoluble | activation of the progesterone receptor [3]: does not activate | prenatal and neonatal developmental toxicity [4]: have not demonstrated toxicities | half-life [5]: approximately 20 hours | metabolizing enzyme ([6]; human, in vivo): metabolized by CYP3A4/5 | lowering in overall ganaxolone levels and exposure ([6]; subjects taking strong CYP inducers (carbamazepine and phenytoin)): ~45% | Tmax ([7]; human, in vivo): short | oral bioavailability ([7]; in contrast to allopregnanolone): orally bioavailable
